Results from patent publication US12371416B2, “Compounds for inhibition of fibroblast activation protein” (USTAV ORGANICKE CHEMIE A BIOCHEMIE AV CR, V. V. I., priority 2020, dated 2025).

What was measured:
Format in all cases: cell-based, human
Details in all cases: 72 h
Hela = experiment: Cytotoxicity (XTT) on Hela cells
Method: (§1) The cytotoxicity of the substances was measured on four tumour cell lines: CCRF-CEM, HepG2, Hela, HL-60. All cell lines were purchased from ATCC (Manassas, VA, USA). Cells were cultured in RPMI-1640 or DMEM medium containing 10% (wt/wt) FBS and 1% (wt/wt) GlutaMax. Cells were distributed at 2,000-10,000 per well of a 384-well plate (Thermo Fisher Scientific, Waltham, USA) and incubated overnight. After 24 hours, test substance solutions (10 or 100 μmol·l^−1) were added to the wells and the cells were incubated with the test substances at 37° C. and 5% (vol./vol.) CO2 for another 72 h. XTT dye (XTT cell proliferation kit II, Roche Diagnostics GmbH, Mannheim, Germany) was added to the wells according to the manufacturer's protocol. After one hour of incubation with the dye, the absorbance at 495 nm was measured and the signal was compared with the control (100% viability=cells without test substance).

HL-60 = experiment: Cytotoxicity (XTT) on HL-60 cells
Method: as §1

HepG2 = experiment: Cytotoxicity (XTT) on HepG2 cells
Method: as §1

CCRF-CEM = experiment: Cytotoxicity (XTT) on CCRF-CEM cells
Method: as §1

Compound | Cell viability HeLa S3 10 μM (Hela) | Cell viability HeLa S3 100 μM (Hela) | Cell viability HL60 10 μM (HL-60) | Cell viability HL60 100 μM (HL-60) | Cell viability HepG2 10 μM (HepG2) | Cell viability HepG2 100 μM (HepG2) | Cell viability CEM 10 μM (CCRF-CEM) | Cell viability CEM 100 μM (CCRF-CEM)
COC(=O)C(C)NC(=O)C(=O)[C@@H]1CCCN1C(=O)CNC(=O)c1ccnc2ccccc12 (mixture of isomers) [Compound 3m, Methyl (2-oxo-2-((S)-1-((quinoline-4-carbonyl)glycyl)pyrrolidin-2-yl)acetyl)alaninate] | 108 % vs. control | 104 % vs. control | 102 % vs. control | 124 % vs. control | 91 % vs. control | 105 % vs. control | 97 % vs. control | 120 % vs. control
O=C(NCCc1ccccc1)C(=O)[C@@H]1CCCN1C(=O)CNC(=O)c1ccnc2ccccc12 [Compound 3d, (S)—N-(2-Oxo-2-(2-(2-oxo-2-(phenethylamino)acetyl)pyrrolidin-1-yl)ethyl)quinoline-4-carboxamide] | 86 % vs. control | 81 % vs. control | 110 % vs. control | 107 % vs. control | 88 % vs. control | 89 % vs. control | 105 % vs. control | 85 % vs. control
COc1ccc(NC(=O)C(=O)[C@@H]2CCCN2C(=O)CNC(=O)c2ccnc3ccccc23)cc1 [Compound 3f, (S)—N-(2-(2-(2-((4-Methoxyphenyl)amino)-2-oxoacetyl)pyrrolidin-1-yl)-2-oxoethyl)quinoline-4-carboxamide] | 103 % vs. control | 94 % vs. control | 110 % vs. control | 108 % vs. control | 95 % vs. control | 82 % vs. control | 92 % vs. control | 84 % vs. control
COC(=O)c1ccc(NC(=O)C(=O)[C@@H]2CCCN2C(=O)CNC(=O)c2ccnc3ccccc23)cc1 [Compound 3g, Methyl (S)-4-(2-oxo-2-(1-((quinoline-4-carbonyl)glycyl)pyrrolidin-2-yl)acetamido)benzoate] | 98 % vs. control | 89 % vs. control | 100 % vs. control | 103 % vs. control | 93 % vs. control | 63 % vs. control | 106 % vs. control | 73 % vs. control
O=C(NC1CC1)C(=O)[C@@H]1CCCN1C(=O)CNC(=O)c1ccnc2ccccc12 [Compound 3h, (S)—N-(2-(2-(2-(Cyclopropylamino)-2-oxoacetyl)pyrrolidin-1-yl)-2-oxoethyl)quinoline-4-carboxamide] | 89 % vs. control | 103 % vs. control | 110 % vs. control | 95 % vs. control | 88 % vs. control | 108 % vs. control | 94 % vs. control | 115 % vs. control
CC(C)NC(=O)C(=O)[C@@H]1CCCN1C(=O)CNC(=O)c1ccnc2ccccc12 [Compound 3i, (S)—N-(2-(2-(2-(Isopropylamino)-2-oxoacetyl)pyrrolidin-1-yl)-2-oxoethyl)quinoline-4-carboxamide] | 78 % vs. control | 105 % vs. control | 111 % vs. control | 100 % vs. control | 87 % vs. control | 110 % vs. control | 93 % vs. control | 117 % vs. control
COC(=O)CNC(=O)C(=O)[C@@H]1CCCN1C(=O)CNC(=O)c1ccnc2ccccc12 [Compound 3k, Methyl (S)-(2-oxo-2-(1-((quinoline-4-carbonyl)glycyl)pyrrolidin-2-yl)acetyl)glycinate] | 104 % vs. control | 94 % vs. control | 112 % vs. control | 103 % vs. control | 109 % vs. control | 105 % vs. control | 110 % vs. control | 123 % vs. control
CN(C)C(=O)CNC(=O)C(=O)[C@@H]1CCCN1C(=O)CNC(=O)c1ccnc2ccccc12 [Compound 5a, (S)—N-(2-(2-(2-((2-(Dimethylamino)-2-oxoethyl)amino)-2-oxoacetyl)pyrrolidin-1-yl)-2-oxoethyl)quinoline-4-carboxamide] | 92 % vs. control | 102 % vs. control | 105 % vs. control | 76 % vs. control | 91 % vs. control | 104 % vs. control | 104 % vs. control | 100 % vs. control
O=C(NCC(=O)N1CCCC1)C(=O)[C@@H]1CCCN1C(=O)CNC(=O)c1ccnc2ccccc12 [Compound 5b] | 93 % vs. control | 101 % vs. control | 111 % vs. control | 86 % vs. control | 83 % vs. control | 106 % vs. control | 90 % vs. control | 109 % vs. control
CC(C)NC(=O)CNC(=O)C(=O)[C@@H]1CCCN1C(=O)CNC(=O)c1ccnc2ccccc12 [Compound 5c, (S)—N-(2-(2-(2-((2-(Isopropylamino)-2-oxoethyl)amino)-2-oxoacetyl)pyrrolidin-1-yl)-2-oxoethyl)quinoline-4-carboxamide] | 119 % vs. control | 99 % vs. control | 86 % vs. control | 89 % vs. control | 96 % vs. control | 108 % vs. control | 113 % vs. control | 108 % vs. control
O=C(CNC(=O)C(=O)[C@@H]1CCCN1C(=O)CNC(=O)c1ccnc2ccccc12)NCc1ccccc1 [Compound 5d, (S)—N-(2-(2-(2-((2-(Benzylamino)-2-oxoethyl)amino)-2-oxoacetyl)pyrrolidin-1-yl)-2-oxoethyl)quinoline-4-carboxamide] | 95 % vs. control | 96 % vs. control | 112 % vs. control | 95 % vs. control | 82 % vs. control | 89 % vs. control | 89 % vs. control | 107 % vs. control
COC(=O)[C@H](CC(C)C)NC(=O)CNC(=O)C(=O)[C@@H]1CCCN1C(=O)CNC(=O)c1ccnc2ccccc12 [Compound 5e, Methyl (2-oxo-2-((S)-1-((quinoline-4-carbonyl)glycyl)pyrrolidin-2-yl)acetyl)glycyl-L-leucinate] | 99 % vs. control | 106 % vs. control | 112 % vs. control | 83 % vs. control | 75 % vs. control | 110 % vs. control | 96 % vs. control | 104 % vs. control
COC(=O)[C@H](CCC(N)=O)NC(=O)CNC(=O)C(=O)[C@@H]1CCCN1C(=O)CNC(=O)c1ccnc2ccccc12 [Compound 5g, Methyl (2-oxo-2-((S)-1-((quinoline-4-carbonyl)glycyl)pyrrolidin-2-yl)acetyl)glycyl-L-glutaminate] | 109 % vs. control | 99 % vs. control | 88 % vs. control | 103 % vs. control | 102 % vs. control | 108 % vs. control | 114 % vs. control | 101 % vs. control
